SMILES strings stand for the structures.

IgE-Tb / sFcεRIα-Y131A-AF488, sequence (P01854 whole entry N146Q/N252Q): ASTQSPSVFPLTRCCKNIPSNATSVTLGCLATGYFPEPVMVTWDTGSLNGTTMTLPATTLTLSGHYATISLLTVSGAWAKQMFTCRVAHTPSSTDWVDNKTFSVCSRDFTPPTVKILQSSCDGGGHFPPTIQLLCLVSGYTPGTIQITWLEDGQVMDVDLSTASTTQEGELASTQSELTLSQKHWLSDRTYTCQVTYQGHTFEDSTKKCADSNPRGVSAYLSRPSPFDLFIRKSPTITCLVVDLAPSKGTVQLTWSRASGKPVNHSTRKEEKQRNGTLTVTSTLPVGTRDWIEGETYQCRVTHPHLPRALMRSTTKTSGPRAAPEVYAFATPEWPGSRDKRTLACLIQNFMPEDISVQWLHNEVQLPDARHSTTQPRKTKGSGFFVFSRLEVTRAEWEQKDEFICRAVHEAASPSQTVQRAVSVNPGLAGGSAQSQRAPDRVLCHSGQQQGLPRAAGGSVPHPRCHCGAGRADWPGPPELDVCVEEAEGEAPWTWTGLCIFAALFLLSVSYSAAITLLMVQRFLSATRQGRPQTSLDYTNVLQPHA

The test concerns the target IgE-Tb / sFcεRIα-Y131A-AF488 (Homo sapiens, UniProt P01854, N146Q/N252Q). Nature of the test: IgE-Tb / sFcεRIα-Y131A-AF488 FRET assay (protocol for examples 234 to 501). The class given is binding. The note with it: examples 234 to 501: compound with IgE-Tb 30 minutes before sFcεRIα-Y131A-AF488, incubated 18 hours at room temperature; read-out: Y131A FRET IC50 range. The method, then:
For examples 234 to 501, the assay was conducted according to the following: Each assay reaction was conducted in a volume of 25 μl in a 384-well half-volume plate. 10 point compound serial dilutions (3-fold) were generated in DMSO at a concentration of ×50 that of the final assay concentration (FAC). Compound solutions were then prepared by diluting 10-fold in assay buffer. For the assay, 5l of diluted compound was added to 10 μl of IgE-Tb and incubated for 30 minutes before the addition of 10 μ[…]. FRET reagents FACs were 5 nM IgE-Tb, 25 nM […]. Usually the top FAC of compound in the assay was 10 μM. The final DMSO concentration was 2%. […] The maximum FRET signal (MAX) was measured in wells containing FRET reagents but no compound. The assay was incubated for 18 hours at room temperature, protected from light and evaporation, and with gentle agitation. Measurement of FRET for each well was carried out by exciting at 337 nm and measuring emission at 490/520 nm using a PHERAstar FSX plate reader (BMG Labtech). FRET ratio was calculated as follows: Emission at 520/7Emission at 490×1000. The FRET ratio was used for the data analysis. […] Z' above 0.5 was considered a good assay. Background signal (MIN) was subtracted from all wells. […] Percent inhibition was plotted against compound concentration. IC50 values for each compound were determined using four parameter logistic fit model using the XLFIT5 software package.
Broadly, the IC50 is the concentration at which inhibition is half-maximal. Take `COc1cc(Nc2nncn2[C@H]2CCc3sc(NC(=O)[C@H]4C[C@@H]4C)c(C(=O)N[C@@H]4CC45CC5)c3C2)n(C)n1` (relative stereo) [Example 465, (5S)-5-[3-[(5-methoxy-2-methyl-pyrazol-3-yl)amino]-1,2,4-triazol-4-yl]-2-[[(1S,2S)-2-methylcyclopropanecarbonyl]amino]-N-[(2R*)-spiro[2.2]pentan-2-yl]-4,5,6,7-tetrahydrobenzothiophene-3-carboxamide [* or 5]]: the IC50 was below 1000 nM.

As for `Cn1nc(C(F)F)cc1Nc1nncn1[C@H]1CCc2sc(NC(=O)[C@H]3C[C@H](F)C3)c(C(=O)NC[C@H]3CC3(F)F)c2C1` (relative stereo) [Example 472, (5S)—N-[[(1R*)-2,2-difluorocyclopropyl]methyl]-5-[3-[[5-(difluoromethyl)-2-methyl-pyrazol-3-yl]amino]-1,2,4-triazol-4-yl]-2-[trans-(3-fluorocyclobutanecarbonyl)amino]-4,5,6,7-tetrahydrobenzothiophene-3-carboxamide [* or S]], the IC50 is below 1000 nM. The result for `Cn1nc(C(F)F)cc1Nc1nncn1[C@H]1CCc2sc(NC(=O)[C@H]3CC3(F)F)c(C(=O)NC[C@H]3C[C@H]3F)c2C1` (relative stereo) [Example 498, (5S)-2-[[(1R*)-2,2-difluorocyclopropanecarbonyl]amino]-5-[3-[[5-(difluoromethyl)-2-methyl-pyrazol-3-yl]amino]-1,2,4-triazol-4-yl]-N-[[(1R,2R)-2-fluorocyclopropyl]methyl]-4,5,6,7-tetrahydrobenzothiophene-3-carboxamide (* or S)] reads below 1000 nM; that for `Cc1cc(Nc2nncn2[C@H]2CCc3sc(NC(=O)[C@H]4CC45CC5)c(C(=O)NCC4CC4)c3C2)n(C)n1` (relative stereo) [Example 500, (5S)—N-(cyclopropylmethyl)-5-[3-[(2,5-dimethylpyrazol-3-yl)amino]-1,2,4-triazol-4-yl]-2-[[(2S*)-spiro[2.2]pentane-2-carbonyl]amino]-4,5,6,7-tetrahydrobenzothiophene-3-carboxamide (* or R)], below 1000 nM; that for `O=C(NCC1CC1)c1c(NC(=O)C2CC2)sc2c1C[C@@H](n1cnnc1NC1CCS(=O)(=O)C1)CC2` (single isomer, unassigned) [Example 234, (5S)-2-(cyclopropanecarbonylamino)-N-(cyclopropylmethyl)-5-[3-[[(3S*)-1,1-dioxothiolan-3-yl]amino]-1,2,4-triazol-4-yl]-4,5,6,7-tetrahydrobenzothiophene-3-carboxamide], below 1000 nM. The result for `Cc1c(Nc2nncn2[C@H]2CCc3sc(NC(=O)C4CC4)c(C(=O)NCC4CC4)c3C2)cccc1[S@@](C)(=N)=O` (single isomer, unassigned) [Example 236] reads below 1000 nM.

For the compound `Cc1c(Nc2nncn2[C@H]2CCc3sc(NC(=O)C4CC4)c(C(=O)NCC4CC4)c3C2)cccc1[S@](C)(=N)=O` (single isomer, unassigned) [Example 237], the IC50 was below 1000 nM. The result for `CC(=O)N1CC[C@](C)(Nc2nncn2[C@H]2CCc3sc(NC(=O)C4CC4)c(C(=O)NCC4CC4)c3C2)C1` (single isomer, unassigned) [Example 239, (5S)-5-[3-[[(3*)-1-acetyl-3-methyl-pyrrolidin-3-yl]amino]-1,2,4-triazol-4-yl]-2-(cyclopropanecarbonylamino)-N-(cyclopropylmethyl)-4,5,6,7-tetrahydrobenzothiophene-3-carboxamide] reads below 1000 nM. With `CC1CN(S(C)(=O)=O)CC1Nc1nncn1[C@H]1CCc2sc(NC(=O)C3CC3)c(C(=O)NCC3CC3)c2C1` (single isomer, unassigned) [Example 242], the 50% inhibitory concentration (IC50) was below 1000 nM. As to `C[S@](=N)(=O)c1cccc(Nc2nncn2[C@H]2CCc3sc(NC(=O)C4CC4)c(C(=O)NCC4CC4)c3C2)c1` (single isomer, unassigned) [Example 253], the IC50 was below 1000 nM. Regarding `C[S@@](=N)(=O)c1cccc(Nc2nncn2[C@H]2CCc3sc(NC(=O)C4CC4)c(C(=O)NCC4CC4)c3C2)c1` (single isomer, unassigned) [Example 254], the IC50 is below 1000 nM. On to `CS(=O)(=O)c1cccc(Nc2nncn2[C@H]2CCc3sc(NC(=O)C4CC45CC5)c(C(=O)NCC4CC4)c3C2)n1` (single isomer, unassigned) [Example 256, (5S)—N-(cyclopropylmethyl)-5-[3-[(6-methylsulfonyl-2-pyridyl)amino]-1,2,4-triazol-4-yl]-2-[[(2S*)-spiro[2.2]pentane-2-carbonyl]amino]-4,5,6,7-tetrahydrobenzothiophene-3-carboxamide], for which the IC50 was below 1000 nM.

Turning to `CC1CCCCC1Nc1nncn1[C@H]1CCc2sc(NC(=O)C3CC3)c(C(=O)NCC3CC3)c2C1` (single isomer, unassigned) [Example 269], the IC50 was below 1000 nM.

Take `O=C1CC(Nc2nncn2[C@H]2CCc3sc(NC(=O)C4CC4)c(C(=O)NCC4CC4)c3C2)CN1` (single isomer, unassigned) [Example 271, (5S)-2-(cyclopropanecarbonylamino)-N-(cyclopropylmethyl)-5-[3-[[(3R*)-5-oxopyrrolidin-3-yl]amino]-1,2,4-triazol-4-yl]-4,5,6,7-tetrahydrobenzothiophene-3-carboxamide]: the half-inhibitory concentration (IC50) is below 1000 nM. To `CC1C(Nc2nncn2[C@H]2CCc3sc(NC(=O)C4CC4)c(C(=O)NCC4CC4)c3C2)CCN1S(C)(=O)=O` (single isomer, unassigned) [Example 274] belongs below 1000 nM; to `Cc1ccc(C2CC(Nc3nncn3[C@H]3CCc4sc(NC(=O)C5CC5)c(C(=O)NCC5CC5)c4C3)C2)cn1` (single isomer, unassigned) [Example 276], below 1000 nM. For `Cn1nc(C(F)F)cc1Nc1nncn1[C@H]1CCc2sc(NC(=O)C3CC3(F)F)c(C(=O)NC[C@H]3C[C@H](F)C3)c2C1` (single isomer, unassigned) [Example 278, (5S)-2-[[(1R*)-2,2-difluorocyclopropanecarbonyl]amino]-5-[3-[[5-(difluoromethyl)-2-methyl-pyrazol-3-yl]amino]-1,2,4-triazol-4-yl]-N-[trans-(3-fluorocyclobutyl)methyl]-4,5,6,7-tetrahydrobenzothiophene-3-carboxamide], the IC50 is below 1000 nM. Take `Cn1nc(OC(F)F)cc1Nc1nncn1[C@H]1CCc2sc(NC(=O)C3CC3(F)F)c(C(=O)N[C@H]3C[C@H](F)C3)c2C1` (single isomer, unassigned) [Example 279, (5S)-2-[[(1R*)-2,2-difluorocyclopropanecarbonyl]amino]-5-[3-[[5-(difluoromethoxy)-2-methyl-pyrazol-3-yl]amino]-1,2,4-triazol-4-yl]-N-(trans-3-fluorocyclobutyl)-4,5,6,7-tetrahydrobenzothiophene-3-carboxamide]: the IC50 was below 1000 nM. To `Cn1nc(OC(F)F)cc1Nc1nncn1[C@H]1CCc2sc(NC(=O)C3CC3(F)F)c(C(=O)NC[C@H]3C[C@H](F)C3)c2C1` (single isomer, unassigned) [Example 280, (5S)-2-[[(1R*)-2,2-difluorocyclopropanecarbonyl]amino]-5-[3-[[5-(difluoromethoxy)-2-methyl-pyrazol-3-yl]amino]-1,2,4-triazol-4-yl]-N-[trans-(3-fluorocyclobutyl)methyl]-4,5,6,7-tetrahydrobenzothiophene-3-carboxamide] belongs below 1000 nM; to `Cn1nc(OC(F)F)cc1Nc1nncn1[C@H]1CCc2sc(NC(=O)C3CC3(F)F)c(C(=O)NC[C@@H]3C[C@@H]3F)c2C1` (single isomer, unassigned) [Example 281, (5S)-2-[[(1S*)-2,2-difluorocyclopropanecarbonyl]amino]-5-[3-[[5-(difluoromethoxy)-2-methyl-pyrazol-3-yl]amino]-1,2,4-triazol-4-yl]-N-[[(1S,2S)-2-fluorocyclopropyl]methyl]-4,5,6,7-tetrahydrobenzothiophene-3-carboxamide], below 1000 nM. The result for `Cn1nc(C(F)F)cc1Nc1nncn1[C@H]1CCc2sc(NC(=O)C3CC3(F)F)c(C(=O)NCC3CC3(F)F)c2C1` (single isomer, unassigned) [Example 282] reads below 1000 nM.

As for `Cn1nc(C(F)F)cc1Nc1nncn1[C@H]1CCc2sc(NC(=O)C3CC3(F)F)c(C(=O)NCC3CC3(F)F)c2C1` (single isomer, unassigned) [Example 283], the IC50 is below 1000 nM. With `O=C(NCC1CC1)c1c(NC(=O)C2CC2)sc2c1C[C@@H](n1cnnc1NC1CCC3(CCN(c4ncccn4)C3)C1)CC2` (single isomer, unassigned) [Example 289], the IC50 is below 1000 nM.

For the compound `Cn1nc(OC(F)F)cc1Nc1nncn1[C@H]1CCc2sc(NC(=O)[C@H]3C[C@H]3F)c(C(=O)NCC3CC3)c2C1` (single isomer, unassigned) [Example 349], the IC50 is below 1000 nM. To `Cn1nc(OC(F)F)cc1Nc1nncn1[C@H]1CCc2sc(NC(=O)[C@@H]3C[C@@H]3F)c(C(=O)NCC3CC3)c2C1` (single isomer, unassigned) [Example 350] belongs below 1000 nM; to `Cn1nc(C(F)F)cc1Nc1nncn1[C@H]1CCc2sc(NC(=O)[C@@H]3C[C@@H]3F)c(C(=O)NCC3CC3)c2C1` (single isomer, unassigned) [Example 362], below 1000 nM.
